In article PMC12631006, “Gold‐Dithiocarbamato Glycoconjugates as Potential Anticancer Agents: Design, Physico‐Chemical Characterization, and In Vitro Biological Activity” (Chembiochem, 2025):

Legend:
[1] = system: RC‐124 cells; assay: Cell growth inhibition assay (Crystal Violet), non-tumor reference; format: cell-based, human; details: RC‐124 non‐malignant kidney epithelial cells, 96 h incubation, mean ± SD of three independent experiments
Method: (§1) The capability of the gold(III) complexes Au1‐5, the gold(I)‐phosphine derivatives AuP1‐5, and the gold(I)‐carbene counterparts AuC1‐5 to inhibit cell proliferation was assayed on three human tumor cell lines, namely, colorectal adenocarcinoma (HT‐29), metastatic breast adenocarcinoma (MDA‐MB‐231), and breast adenocarcinoma (MCF‐7) cells, whereas human non‐malignant kidney epithelial (RC‐124) cells were used as non‐tumor reference cell line. […]
Human non-malignant kidney epithelial (RC-124) cells were maintained in McCoy’s 5A Medium (modified to contain 1.5 mM L-glutamine and 2.2 g L-1 sodium bicarbonate; Life Technologies).
(§2) Cells were cultured at 37°C in 5% CO2 and moisture-enriched atmosphere in the respective medium […]
(Biochrom) and passaged once a week.
For experiments involving RC-124 cells, microtiter plates were pre-treated as follows. 30 µL of a 1.5% m/v sterilized gelatine solution were added to each well of flat-bottomed 96-well plates, plates were covered with their lids and incubated for 1 h at 37°C. The excess solution was then removed, wells were washed with PBS solution (pH 7.4), and new cell culture medium was added.
(§3) Cell growth inhibition assay
(§4) Stock solutions of the gold(III) complexes Au1-5, and the gold(I) complexes AuP1-5 and AuC1-5 in DMF were freshly prepared and subsequently diluted with the appropriate complete cell culture medium […]
(§5) The in vitro antiproliferative activity of the various gold complexes was determined following a modified protocol previously reported.[68] 100 µL of HT-29 cells (2.5×10^3 cells mL-1), MDA-MB-231 cells […]
(§6) in 96-well cell culture plates and incubated at 37°C in 5% CO2 humidified atmosphere (note: for RC-124, pre-treated plates were used as mentioned above). After 72 h (MDA-MB-231, MCF-7, RC-124) or 48 h (HT-29), cells were treated with the test compounds at different concentrations (0.01-50 µM) and incubated for further 72 h (HT-29) or 96 h (MDA-MB-231, MCF-7, RC-124) at 37°C. The medium was then discarded, cells were washed with fresh PBS solution and harvested, and the Crystal Violet (Sigma-Aldrich/Merck) staining assay was performed to determine cell viability. The inhibition of cell growth induced by the tested compounds was assessed by measuring the absorbance of each well at 590 nm using a Victor X4 microplate reader (Perkin Elmer). Antiproliferative data are expressed as IC50 values, that is, the concentration (μM) of the test agent inhibiting cell proliferation by 50% compared with untreated […]
(§7) control cultures. […]

[2] = system: HT‐29 cells; assay: Cell growth inhibition assay (Crystal Violet); format: cell-based, human; details: HT‐29 colorectal adenocarcinoma cells, 72 h incubation, mean ± SD of three independent experiments
Method: as §1
(§8) high-glucose Dulbecco’s Modified Eagle’s Medium (4.5 g L-1 D-glucose, 4 mM L-glutamine, 1 mM sodium pyruvate, 1.5 g L-1 sodium bicarbonate; Life Technologies). […]
as §2
(§9) (Biochrom) and passaged once a week. […]
as §3, §4, §5, §6, §7

[3] = system: MDA‐MB‐231 cells; assay: Cell growth inhibition assay (Crystal Violet); format: cell-based, human; details: MDA‐MB‐231 metastatic breast adenocarcinoma cells, 96 h incubation, mean ± SD of three independent experiments
Method: as §1, §8, §2, §9, §3, §4, §5, §6, §7

[4] = system: MCF‐7 cells; assay: Cell growth inhibition assay (Crystal Violet); format: cell-based, human; details: MCF‐7 breast adenocarcinoma cells, 96 h incubation, mean ± SD of three independent experiments
Method: as §1, §8, §2, §9, §3, §4, §5, §6, §7

[5] = system: HT‐29, MDA‐MB‐231 and MCF‐7 cells; assay: Cell growth inhibition, stated over all tested tumor cell lines; format: cell-based, human; details: HT‐29, MDA‐MB‐231, MCF‐7
Method: as §1, §8, §2, §9
Cell growth inhibition assay […]
(§10) The in vitro antiproliferative activity of the various gold complexes was determined following a modified protocol previously reported.[68] […]
in 96-well cell culture plates and incubated at 37°C in 5% CO2 humidified atmosphere (note: for RC-124, pre-treated plates were used as mentioned above). […] The inhibition of cell growth induced by the tested compounds was assessed by measuring the absorbance of each well at 590 nm using a Victor X4 microplate reader (Perkin Elmer). […]

[6] = system: MCF‐7 cells; assay: Cellular uptake of gold (HR‐CS AAS); format: cell-based, human; details: 10 μM, 6 h
Method: It is often assumed that the antiproliferative activity of gold complexes is strongly linked to the efficiency of their cellular uptake and internalization. Moreover, glycoconjugates are commonly believed to enter cells through GLUTs, which, as discussed earlier, are generally over‐expressed in several cancer cells. In particular, GLUT1 is crucial for the uptake of glucose by breast cancer cells, including MDA‐MB‐231 and MCF‐7.^[ [70] ^] […] The gold levels were determined by high‐resolution continuum‐source atomic absorption spectroscopy (HR‐CS AAS) after exposure to 10 μM concentration of the selected compounds over 6 h using either a high‐glucose‐contents or glucose‐free cell culture medium. […]
as §10
in 96-well cell culture plates and incubated at 37°C in 5% CO2 humidified atmosphere (note: for RC-124, pre-treated plates were used as mentioned above). […] The inhibition of cell growth induced by the tested compounds was assessed by measuring the absorbance of each well at 590 nm using a Victor X4 microplate reader (Perkin Elmer). […] Results were calculated as the mean values ± standard deviation (SD) of three […]

[7] = Stability in PBS by UV–Vis; format: physicochemical; details: PBS pH 7.4, 37°C, 25 μM, UV–Vis over time
Method: DMSO and DMF are solvents commonly used to prepare stock solutions of metal complexes prior to performing biological studies, especially if poorly soluble in aqueous media. […] However, to mimic a physiological‐like environment, stability studies in phosphate‐buffered saline (PBS) solution at pH 7.4 and 37°C were carried out for the various gold complexes by UV–Vis spectrophotometry.

IC50 values over the tested tumor cell lines [5]	Compound	IC50 [1]	IC50 [2]	IC50 [3]	IC50 [4]	Gold content (intracellular gold) ([6]; with or without glucose (4.5 g L^−1) and with or without Cytochalasin B 50 μM)	Gold uptake in glucose‐ and Cytochalasin B‐free medium versus conditions with glucose, Cytochalasin B, or both ([6]; not statistically significant)	Stability in PBS [7]
–	O=C(NC1C(O)OC(CO)C(O)C1O)C1CCN(C2=[S+][Au-]([Br])([Br])[S]2)CC1 (mixture of isomers) [Au3, [Au^IIIBr2(SSC‐Inp‐GlcN1)]]	> 50 µM	> 50 µM	> 50 µM	> 50 µM	–	–	–
–	CCn1[c]([Au-][S]C(=S)N2CCC(C(=O)NC3C(O)OC(CO)C(O)C3O)CC2)[n+](CC)c2ccccc21 (mixture of isomers) [AuC3, [Au^I(SSC‐Inp‐GlcN1)(Et2BzImy)]]	–	22.7 ± 1 µM	11.5 ± 0.6 µM	12.3 ± 1.4 µM	–	–	–
–	O=C(NC1C(O)OC(CO)C(O)C1O)C1CCN(C(=S)[S][Au][PH](c2ccccc2)(c2ccccc2)c2ccccc2)CC1 (mixture of isomers) [AuP3, [Au^I(SSC‐Inp‐GlcN1)(PPh3)]]	–	8.8 ± 1.6 µM	2.4 ± 0.8 µM	2.6 ± 0.4 µM	–	–	–
low micromolar range	CCOC(=O)C1CCN(C2=[S+][Au-]([Br])([Br])[S]2)CC1 [Au1, [Au^IIIBr2(SSC‐Inp‐OEt)]]	0.6 ± 0.1 µM	1.2 ± 0.2 µM	1.4 ± 0.2 µM	0.8 ± 0.1 µM	–	–	–
low micromolar range	NC(=O)C1CCN(C2=[S+][Au-]([Br])([Br])[S]2)CC1 [Au2, [Au^IIIBr2(SSC‐Inp‐NH2)]]	9.9 ± 0.8 µM	20.1 ± 0.1 µM	8.9 ± 1.1 µM	5.1 ± 1 µM	consistently similar cellular uptake values	–	–
–	CO[C@H]1O[C@H](CO)[C@@H](O)[C@H](O)[C@H]1NC(=O)C1CCN(C2=[S+][Au-]([Br])([Br])[S]2)CC1 [Au4, [Au^IIIBr2(SSC‐Inp‐GlcN2)]]	48.2 ± 13.2 µM	> 50 µM	> 50 µM	> 50 µM	–	slightly higher	–
–	CO[C@H]1O[C@H](CNC(=O)C2CCN(C3=[S+][Au-]([Br])([Br])[S]3)CC2)[C@@H](O)[C@H](O)[C@H]1O [Au5, [Au^IIIBr2(SSC‐Inp‐GlcN3)]]	18.8 ± 1.7 µM	> 50 µM	> 50 µM	> 50 µM	–	–	–
–	CCOC(=O)CN(C)C(=S)[S][Au]=[c]1n(CC)c2ccccc2n1CC [AuC1, [Au^I(SSC‐Sar‐OEt)(Et2BzImy)]]	0.6 ± 0.1 µM	1 ± 0.1 µM	0.8 ± 0.1 µM	0.5 ± 0.1 µM	–	–	–
–	CCn1[c]([Au-][S]C(=S)N2CCC(C(N)=O)CC2)[n+](CC)c2ccccc21 [AuC2, [Au^I(SSC‐Inp‐NH2)(Et2BzImy)]]	–	6.4 ± 1.3 µM	4.7 ± 0.3 µM	4.9 ± 0.6 µM	–	–	–
–	CCn1[c]([Au-][S]C(=S)N2CCC(C(=O)N[C@H]3[C@@H](OC)O[C@H](CO)[C@@H](O)[C@@H]3O)CC2)[n+](CC)c2ccccc21 [AuC4, [Au^I(SSC‐Inp‐GlcN2)(Et2BzImy)]]	–	11.3 ± 0.4 µM	10.5 ± 0.4 µM	10.3 ± 0.3 µM	–	–	–
–	CCn1[c]([Au-][S]C(=S)N2CCC(C(=O)NC[C@H]3O[C@H](OC)[C@H](O)[C@@H](O)[C@@H]3O)CC2)[n+](CC)c2ccccc21 [AuC5, [Au^I(SSC‐Inp‐GlcN3)(Et2BzImy)]]	–	11.8 ± 1.1 µM	9.6 ± 1.5 µM	10.6 ± 0.6 µM	–	–	major spectral changes occur soon after dissolution
–	CCOC(=O)C1CCN(C(=S)[S][Au][PH](c2ccccc2)(c2ccccc2)c2ccccc2)CC1 [AuP1, [Au^I(SSC‐Inp‐OEt)(PPh3)]]	–	0.5 ± 0.1 µM	0.6 ± 0.2 µM	0.2 ± 0.1 µM	–	–	–
–	NC(=O)C1CCN(C(=S)[S][Au][PH](c2ccccc2)(c2ccccc2)c2ccccc2)CC1 [AuP2, [Au^I(SSC‐Inp‐NH2)(PPh3)]]	–	2.9 ± 0.7 µM	1.4 ± 0.3 µM	1.3 ± 0.1 µM	–	–	–
–	CO[C@H]1O[C@H](CO)[C@@H](O)[C@H](O)[C@H]1NC(=O)C1CCN(C(=S)[S][Au][PH](c2ccccc2)(c2ccccc2)c2ccccc2)CC1 [AuP4, [Au^I(SSC‐Inp‐GlcN2)(PPh3)]]	–	6.3 ± 0.5 µM	2.4 ± 0.7 µM	2.4 ± 0.4 µM	–	–	–
–	CO[C@H]1O[C@H](CNC(=O)C2CCN(C(=S)[S][Au][PH](c3ccccc3)(c3ccccc3)c3ccccc3)CC2)[C@@H](O)[C@H](O)[C@H]1O [AuP5, [Au^I(SSC‐Inp‐GlcN3)(PPh3)]]	–	6.7 ± 1.1 µM	2.5 ± 0.5 µM	2.5 ± 0.4 µM	–	–	–
